Experimental data from patent US6737383B1, “Herbicidal oxadiazolidines” (priority 1999, dated 2004).

How the values were obtained:
bedstraw = assay: Test B pre/postemergence bedstraw; assay type: in vivo, Galium aparine; conditions: Postemergence
Summary of the method: (§1)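 Test chemicals in a non-phytotoxic solvent mixture with surfactant were sprayed preemergence onto planted seeds and postemergence onto plants 2 to 18 cm tall (1- to 4-leaf stage). After twelve to sixteen days in a greenhouse, injury was visually rated against untreated controls from 0 (no effect) to 10 (complete control).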

blackgrass = assay: Test B pre/postemergence blackgrass; assay type: in vivo, Alopecurus myosuroides
Summary of the method: as §1

surinam grass = assay: Test B pre/postemergence surinam grass; assay type: in vivo, Brachiaria decumbens
Summary of the method: as §1

cocklebur = assay: Test B pre/postemergence cocklebur; assay type: in vivo, Xanthium strumarium
Summary of the method: as §1

corn = assay: Test B pre/postemergence corn; assay type: in vivo, Zea mays
Summary of the method: as §1

crabgrass = assay: Test B pre/postemergence crabgrass; assay type: in vivo, Digitaria sanguinalis
Summary of the method: as §1

giant foxtail = assay: Test B pre/postemergence giant foxtail; assay type: in vivo, Setaria faberii
Summary of the method: as §1

pigweed = assay: Test B pre/postemergence pigweed; assay type: in vivo, Amaranthus retroflexus
Summary of the method: as §1

soybean = assay: Test B pre/postemergence soybean; assay type: in vivo, Glycine max
Summary of the method: as §1

sugar beet = assay: Test B pre/postemergence sugar beet; assay type: in vivo, Beta vulgaris
Summary of the method: as §1

velvetleaf = assay: Test B pre/postemergence velvetleaf; assay type: in vivo, Abutilon theophrasti
Summary of the method: as §1

wheat = assay: Test B pre/postemergence wheat; assay type: in vivo, Triticum aestivum
Summary of the method: as §1

wild oat = assay: Test B pre/postemergence wild oat; assay type: in vivo, Avena fatua
Summary of the method: as §1

purple nutsedge = assay: Test B pre/postemergence purple nutsedge; assay type: in vivo, Cyperus rotundus
Summary of the method: as §1

rice = assay: Test B flood test rice; assay type: in vivo, Oryza sativa
Summary of the method: (§2)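 Each value is a visual injury score relative to controls, with 10 meaning complete control and 0 no effect. Evaluation took place twelve to sixteen days after the 2-leaf-stage plants were treated and kept in the greenhouse.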

duck salad = assay: Test B flood test duck salad; assay type: in vivo, Heteranthera limosa
Summary of the method: as §2

[1] = Postemergence, Rate 125 g/ha, scale 0 to 10, 0 is no effect, 10 is complete control
[2] = Postemergence, Rate 250 g/ha, scale 0 to 10
[3] = Postemergence, Rate 500 g/ha, scale 0 to 10, 0 is no effect, 10 is complete control
[4] = Preemergence, Rate 62 g/ha, scale of 0 to 10 where 0 is no effect and 10 is complete control
[5] = Preemergence, Rate 125 g/ha, scale 0 to 10, 0 is no effect, 10 is complete control
[6] = Preemergence, Rate 250 g/ha, scale 0 to 10, 0 is no effect, 10 is complete control
[7] = Preemergence, Rate 500 g/ha, scale 0 to 10, 0 is no effect, 10 is complete control
[8] = Rate 62 g/ha, Postemergence, scale 0 to 10, 0 no effect, 10 complete control
[9] = Rate 62 g/ha, flood test species, Pre-emergence, visual evaluation after twelve to sixteen days
[10] = Rate 125 g/ha, under heading Pre-emergence, flood test species, visual evaluation after twelve to sixteen days
[11] = Rate 250 g/ha, Pre-emergence (flood test species), scale 0 to 10, 0 is no effect, 10 is complete control
[12] = Rate 500 g/ha, Pre-emergence section of Table B, 0 to 10 scale (0 no effect, 10 complete control)

CC(C)C(=O)Cn1c(=O)on(C(=O)N(c2ccc(F)cc2F)C(C)C)c1=O [Compound 486] was tested, and the “Bedstraw plant response rating” value (bedstraw; Rate 125 g/ha, scale 0 to 10, 0 is no effect, 10 is complete control) was 1, the “Bedstraw plant response rating” value (bedstraw; Rate 250 g/ha, scale 0 to 10) was 4 and the “Plant response rating, Bedstraw” value (bedstraw; Rate 500 g/ha, scale 0 to 10, 0 is no effect, 10 is complete control) was 8. For the same molecule, the “Bedstraw plant response rating” value (bedstraw; Rate 62 g/ha, scale 0 to 10, 0 no effect, 10 complete control) was 0, the “Blackgrass plant response rating” value (blackgrass; [1]) was 6 and the “Blackgrass plant response rating” value (blackgrass; [2]) was 8. The “Plant response rating, Blackgrass” value (blackgrass; [3]) was 8, the “Plant response rating, Blackgrass” value (blackgrass; [4]) was 7 and the “Blackgrass plant response rating” value (blackgrass; [5]) was 9. The “Blackgrass plant response rating” value (blackgrass; [6]) was 10, the “Blackgrass plant response rating” value (blackgrass; [7]) was 10 and the “Blackgrass plant response rating” value (blackgrass; [8]) was 0. The “B. signalgrass plant response rating” value (surinam grass; [1]) was 0, the “B. signalgrass plant response rating” value (surinam grass; Postemergence, Rate 250 g/ha, scale 0 to 10, 0 no effect, 10 complete control) was 1 and the “Plant response rating, B. signalgrass” value (surinam grass; [3]) was 5. For the same molecule, the “Plant response rating, B. signalgrass” value (surinam grass; [4]) was 5, the “B. signalgrass plant response rating” value (surinam grass; [5]) was 5 and the “B. signalgrass plant response rating” value (surinam grass; [6]) was 6. The “B. signalgrass plant response rating” value (surinam grass; [7]) was 8, the “B. signalgrass plant response rating” value (surinam grass; [8]) was 0 and the “Cocklebur plant response rating” value (cocklebur; [1]) was 0. For the same molecule, the “Cocklebur plant response rating” value (cocklebur; [2]) was 0, the “Plant response rating, Cocklebur” value (cocklebur; [3]) was 0 and the “Plant response rating, Cocklebur” value (cocklebur; [4]) was 0. The “Cocklebur plant response rating” value (cocklebur; [5]) was 0, the “Cocklebur plant response rating” value (cocklebur; [7]) was 0 and the “Cocklebur plant response rating” value (cocklebur; [8]) was 0. The “Corn plant response rating” value (corn; [1]) was 0, the “Corn plant response rating” value (corn; [2]) was 0 and the “Plant response rating, Corn” value (corn; [3]) was 3. The “Plant response rating, Corn” value (corn; [4]) was 0, the “Corn plant response rating” value (corn; [5]) was 0 and the “Corn plant response rating” value (corn; [6]) was 5. The “Corn plant response rating” value (corn; [7]) was 8, the “Corn plant response rating” value (corn; [8]) was 0 and the “Crabgrass plant response rating” value (crabgrass; [1]) was 3. For the same molecule, the “Crabgrass plant response rating” value (crabgrass; [2]) was 5, the “Plant response rating, Crabgrass” value (crabgrass; [3]) was 9 and the “Plant response rating, Crabgrass” value (crabgrass; [4]) was 8. For the same molecule, the “Crabgrass plant response rating” value (crabgrass; [5]) was 9, the “Crabgrass plant response rating” value (crabgrass; [6]) was 10 and the “Crabgrass plant response rating” value (crabgrass; [7]) was 10. For the same molecule, the “Crabgrass plant response rating” value (crabgrass; [8]) was 0, the “Giant foxtail plant response rating” value (giant foxtail; [1]) was 7 and the “Plant response rating, Giant foxtail” value (giant foxtail; [3]) was 9. The “Plant response rating, Giant foxtail” value (giant foxtail; [4]) was 9, the “Giant foxtail plant response rating” value (giant foxtail; [5]) was 10 and the “Giant foxtail plant response rating” value (giant foxtail; [6]) was 10. The “Giant foxtail plant response rating” value (giant foxtail; [7]) was 10, the “Giant foxtail plant response rating” value (giant foxtail; [8]) was 2 and the “Redroot pigweed plant response rating” value (pigweed; [1]) was 0. For the same molecule, the “Plant response rating, Redroot pigweed” value (pigweed; [3]) was 2, the “Plant response rating, Redroot pigweed” value (pigweed; [4]) was 6 and the “Redroot pigweed plant response rating” value (pigweed; [5]) was 8. The “Redroot pigweed plant response rating” value (pigweed; [6]) was 9, the “Redroot pigweed plant response rating” value (pigweed; [7]) was 9 and the “Redroot pigweed plant response rating” value (pigweed; [8]) was 0. The “Soybean plant response rating” value (soybean; [1]) was 4, the “Plant response rating, Soybean” value (soybean; [3]) was 4 and the “Plant response rating, Soybean” value (soybean; [4]) was 0. For the same molecule, the “Soybean plant response rating” value (soybean; [5]) was 0, the “Soybean plant response rating” value (soybean; [6]) was 0 and the “Soybean plant response rating” value (soybean; [7]) was 2. The “Soybean plant response rating” value (soybean; [8]) was 4, the “Sugarbeets plant response rating” value (sugar beet; [1]) was 0 and the “Plant response rating, Sugarbeets” value (sugar beet; [3]) was 2. For the same molecule, the “Plant response rating, Sugarbeets” value (sugar beet; [4]) was 0, the “Sugarbeets plant response rating” value (sugar beet; [5]) was 0 and the “Sugarbeets plant response rating” value (sugar beet; [6]) was 4. The “Sugarbeets plant response rating” value (sugar beet; [7]) was 6, the “Sugarbeets plant response rating” value (sugar beet; [8]) was 0 and the “Velvetleaf plant response rating” value (velvetleaf; [1]) was 0. For the same molecule, the “Plant response rating, Velvetleaf” value (velvetleaf; [3]) was 6, the “Plant response rating, Velvetleaf” value (velvetleaf; [4]) was 0 and the “Velvetleaf plant response rating” value (velvetleaf; [5]) was 0. For the same molecule, the “Velvetleaf plant response rating” value (velvetleaf; [6]) was 0, the “Velvetleaf plant response rating” value (velvetleaf; [7]) was 0 and the “Velvetleaf plant response rating” value (velvetleaf; [8]) was 0. The “Wheat plant response rating” value (wheat; [1]) was 0, the “Plant response rating, Wheat” value (wheat; [3]) was 5 and the “Plant response rating, Wheat” value (wheat; [4]) was 0. For the same molecule, the “Wheat plant response rating” value (wheat; [5]) was 0, the “Wheat plant response rating” value (wheat; [6]) was 0 and the “Wheat plant response rating” value (wheat; [7]) was 0. The “Wheat plant response rating” value (wheat; [8]) was 0, the “Wild oats plant response rating” value (wild oat; [1]) was 0 and the “Plant response rating, Wild oats” value (wild oat; [3]) was 3. The “Plant response rating, Wild oats” value (wild oat; [4]) was 0, the “Wild oats plant response rating” value (wild oat; [5]) was 3 and the “Wild oats plant response rating” value (wild oat; [6]) was 5. The “Wild oats plant response rating” value (wild oat; [7]) was 8, the “Wild oats plant response rating” value (wild oat; [8]) was 0 and the “Nutsedge plant response rating” value (purple nutsedge; [1]) was 0. The “Plant response rating, Nutsedge” value (purple nutsedge; [3]) was 0, the “Plant response rating, Nutsedge” value (purple nutsedge; [4]) was 0 and the “Nutsedge plant response rating” value (purple nutsedge; [5]) was 0. The “Nutsedge plant response rating” value (purple nutsedge; [6]) was 0, the “Nutsedge plant response rating” value (purple nutsedge; [7]) was 0 and the “Nutsedge plant response rating” value (purple nutsedge; [8]) was 0. For the same molecule, the “Plant response rating, Rice (0 to 10 scale, 0 is no effect, 10 is complete control)” value (rice; [9]) was 0, the “Rice plant response rating (0 to 10 scale, 0 is no effect, 10 is complete control)” value (rice; [10]) was 0 and the “Rice plant response rating” value (rice; [11]) was 0. For the same molecule, the “Rice plant response rating” value (rice; [12]) was 0, the “Plant response rating, Ducksalad (0 to 10 scale, 0 is no effect, 10 is complete control)” value (duck salad; [9]) was 0 and the “Ducksalad plant response rating (0 to 10 scale, 0 is no effect, 10 is complete control)” value (duck salad; [10]) was 0. The “Ducksalad plant response rating” value (duck salad; [11]) was 0 and the “Ducksalad plant response rating” value (duck salad; [12]) was 0.
